From paper PMC2777269 (Nature medicine, 2002)
Where two headings read alike, the source gives them in different places. Values belong to the molecule of their own block, whether it stands above or below them. Ends that are not written are not given here. * marks the point of attachment. 125I = [125I]*

Columns and labels:
[1] = system: Zymosan A-driven PMN infiltration; assay: Zymosan A-initiated PMN infiltration, 6-day-old murine air pouch; settings: 4 h; for inhibition of Zymosan A-driven PMN infiltration: mean, n = 8
[2] = target: T1, human PMNs (ALXR/FPRL1) (Homo sapiens, UniProt P25090); assay: [^125I-Tyr]Ac2-26 binding, isolated human PMNs in suspension; settings: 30 nM [^125I-Tyr]Ac2-26, 40 min, 4 °C, duplicates, n = 3
T1 sequence (P25090 1-351): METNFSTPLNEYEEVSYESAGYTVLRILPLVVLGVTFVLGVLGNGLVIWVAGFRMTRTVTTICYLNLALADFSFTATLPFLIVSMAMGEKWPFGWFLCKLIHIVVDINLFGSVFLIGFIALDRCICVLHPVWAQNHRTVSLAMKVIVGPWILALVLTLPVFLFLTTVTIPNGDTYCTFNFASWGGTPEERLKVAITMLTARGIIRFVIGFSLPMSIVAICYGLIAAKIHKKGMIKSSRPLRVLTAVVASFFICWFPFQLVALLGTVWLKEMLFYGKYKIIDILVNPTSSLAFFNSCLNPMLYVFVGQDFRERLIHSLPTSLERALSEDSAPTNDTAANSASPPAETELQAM

[3] = target: T2, adherent human PMNs (ALXR/FPRL1) (Homo sapiens, UniProt P25090); assay: [^125I-Tyr]Ac2-26 binding, adherent human PMNs; settings: 30 nM [^125I-Tyr]Ac2-26, duplicates, n = 3
T2 sequence (P25090 1-351): T1 sequence (P25090 1-351)

[4] = target: T3, recombinant ALXR/FPRL1 (Homo sapiens, UniProt P25090); settings: HEK293-ALXR, 30 nM [^125I-Tyr]Ac2-26, 40 min, 4 °C; duplicates, n = 3
T3 sequence (P25090 1-351): T1 sequence (P25090 1-351)

[5] = system: monocytes/macrophages; settings: nonphlogistic; cited from earlier work
[6] = system: human LTB4 receptor (BLT1); settings: BLT1-transfected HEK293 cells; cited from earlier work
[7] = system: 15-epi-LXA4; assay: 15-epi-LXA4 generation in murine air-pouch exudates; type: in vivo, Swiss Albino mice; settings: ASA 300 μg; 4 and 16 h; n = 8
[8] = system: PMN transmigration and adhesion; settings: cited from earlier work
[9] = system: human PMNs; assay: Ca^2+ mobilization in Fura2-AM-loaded human PMNs
[10] = system: human PMNs; assay: Human PMN chemotaxis; settings: n = 3
[11] = system: recombinant ALXR/FPRL1 (CHO-Gqo-ALXR cells); assay: Chemotaxis of CHO cells expressing ALXR and Gqo chimera; settings: ATLa1 100 nM, Ac2-26 100 μM; 4 h, 37 °C; n = 3
[12] = system: ALXR/FPRL1; assay: ANXA1/ALXR co-immunoprecipitation, human PMNs; type: binding; settings: non-adherent human PMNs (control)
[13] = system: ANXA1; assay: ANXA1 generation in murine air-pouch exudates; type: in vivo, Swiss Albino mice; settings: 4 h versus 16 h; n = 8
[14] = system: formyl peptide receptors (FPRs); settings: partially diminished; cited from earlier work
[15] = system: PMN transmigration and phagocytosis; settings: in vitro and in vivo; cited from earlier work
[16] = target: T4, human recombinant lipoxin A4 receptor (ALXR/FPRL1) expressed on HEK293 cells (human, UniProt P25090 1-351); assay: radioligand binding
T4 sequence (looked up): T1 sequence (P25090 1-351)

[17] = target: T4, human recombinant lipoxin A4 receptor …; assay: radioligand binding; remark: listed apart in the source
[18] = target: T5, human ALXR (ALXR/FPRL1) (Homo sapiens, UniProt P25090); settings: at much higher concentrations than LXA4; cited from earlier work
T5 sequence (P25090 1-351): T1 sequence (P25090 1-351)

[19] = system: ALXR/FPRL1; settings: cited from earlier work
[20] = system: human PMN oxidative burst; settings: cited from earlier work

Molecule: Ac2-6: ANXA1-derived peptide (Ac-AMVSE; UniProt P04083 2-6, looked up, fragment)
inhibition of PMN infiltration, i.v. peptides (in words) ([1]; i.v. tail vein 15 min prior to 1 mg Zymosan A, 6–12 mice): inhibited PMN infiltration in a dose-dependent fashion

competition for specific [^125I-Tyr]Ac2-26 binding, adherent PMNs (in words) [3]: retained their ability to compete
competition for specific [^125I-Tyr]Ac2-26 binding (in words) [4]: specifically competed
Molecule: CCCCC[C@H](O)/C=C/C=C\C=C\C=C\[C@@H](O)[C@@H](O)CCCC(=O)O [LXA4, lipoxin A4, reference compound]
competition for [^125I-Tyr]Ac2-26 binding to human PMN (in words) ([2]; suspension): competed for [^125I-Tyr]Ac2-26 peptide binding to human PMN
enhanced uptake of apoptotic neutrophils by monocytes/macrophages [5]: enhance the uptake of apoptotic neutrophils
competition for [^3H]LTB4 binding [6]: neither LXA4 (ref. [18]) nor Ac2-26 peptide competed

Molecule: CC(=O)Oc1ccccc1C(=O)O [ASA, Aspirin, reference compound]
15-epi-LXA4 (ATL) generation in ASA-treated animals [7]: generated and present in ASA-treated animals at 4 hours that diminished by 16 hours
inhibition of Zymosan A-driven PMN infiltration ([1]; ASA alone 1 mg into pouch 15 min before Zymosan A (1 mg)): 36%

Molecule: O=C(O)CCC[C@H](O)[C@H](O)/C=C/C=C/C=C\C=C\[C@@H](O)COc1ccc(F)cc1 [ATLa, 15-epi-16-(para-fluoro)-phenoxy-LXA4]
inhibition of PMN infiltration, i.v. ATLa 5 μg ([1]; 5 μg per mouse (~12 nmol) i.v. 15 min before Zymosan A, n = 6–8): ~ 40%
inhibition of PMN infiltration, administered (in words) ([1]; ATLa 0.5–5 μg, Ac2-26 5–100 μg i.v., n = 6–8): potent inhibitors of PMN infiltration

Molecule: O=c1c(-c2ccc(O)cc2)coc2cc(O)cc(O)c12 [genistein, reference compound]
modulation of LXA4-regulated PMN transmigration and adhesion [8]: modulates LXA4-regulated PMN transmigration and adhesion
block of Ac2-26 calcium mobilization response ([9]; Supplementary Fig. B, panel c): partially blocked

Molecule: CCCCCC(C)(O)/C=C/C=C\C=C\C=C\[C@@H](O)[C@@H](O)CCCC(=O)O (mixture of isomers) [ATLa1, 15(R/S)-methyl-LXA4]
block of Ac2-26-evoked chemotaxis, human PMNs ([10]; ATLa1 10 or 100 nM, 30 min, 37 °C, Ac2-26 1–10 μM): clearly blocked Ac2-26 evoked chemotaxis
chemotactic activity, human PMNs ([10]; Ac2-26 1–10 μM or ATLa1 alone 10–100 nM): did not evoke chemotaxis
chemotaxis responses, CHO-Gqo-ALXR cells [11]: clear chemotaxis responses

Molecule: C[C@@H]1C[C@H]2[C@@H]3CCC4=CC(=O)C=C[C@]4(C)[C@@]3(F)[C@@H](O)C[C@]2(C)[C@@]1(O)C(=O)CO [DEX, dexamethasone, reference compound]
inhibition of Zymosan A-driven PMN infiltration ([1]; DEX alone 10 μg into pouch 15 min before Zymosan A (1 mg)): 53%

B1: ANXA1: protein of 346 amino acids and a member of the annexin superfamily, highly abundant PMN-derived protein induced by glucocorticoids (protein, UniProt P04083 2-346, looked up)
Annexin A1: AMVSEFLKQAWFIENEEQEYVQTVKSSKGGPGSAVSPYPTFNPSSDVAALHKAIMVKGVDEATIIDILTKRNNAQRQQIKAAYLQETGKPLDETLKKALTGHLEEVVLALLKTPAQFDADELRAAMKGLGTDEDTLIEILASRTNKEIRDINRVYREELKRDLAKDITSDTSGDFRNALLSLAKGDRSEDFGVNEDLADSDARALYEAGERRKGTDVNVFNTILTTRSYPQLRRVFQKYTKYSKHDMNKVLDLELKGDIEKCLTAIVKCATSKPAFFAEKLHQAMKGVGTRHKALIRIMVSRSEIDMNDIKAFYQKMYGISLCQAILDETKGDYEKILVALCGGN
co-immunoprecipitation of ANXA1 with ALXR/FPRL1, non-adherent PMNs [12]: not co-immunoprecipitated
ANXA1 generation in exudates [13]: low at 4 hours and much higher at 16 hours
competition for specific [^125I-Tyr]Ac2-26 binding (in words) [4]: competed for [^125I-Tyr]Ac2-26 binding with similar affinity
reduction of ANXA1 interactions with circulating leukocytes or peritoneal macrophages in FPR-deficient mice [14]: ~ 40%
inhibition of PMN transmigration and phagocytosis [15]: potent inhibitors of PMN transmigration and phagocytosis

B2: hrANXA1: human recombinant annexin 1 (protein)
chain: MAMVSEFLKQAWFIENEEQEYVQTVKSSKGGPGSAVSPYPTFNPSSDVAALHKAIMVKGVDEATIIDILTKRNNAQRQQIKAAYLQETGKPLDETLKKALTGHLEEVVLALLKTPAQFDADELRAAMKGLGTDEDTLIEILASRTNKEIRDINRVYREELKRDLAKDITSDTSGDFRNALLSLAKGDRSEDFGVNEDLADSDARALYEAGERRKGTDVNVFNTILTTRSYPQLRRVFQKYTKYSKHDMNKVLDLELKGDIEKCLTAIVKCATSKPAFFAEKLHQAMKGVGTRHKALIRIMVSRSEIDMNDIKAFYQKMYGISLCQAILDETKGDYEKILVALCGGN
effect on cellular response to subsequent fMLP (in words) ([9]; Ac2-26 10 μM, hrANXA1 0.5 μM): did not affect the cellular response

IC50 [16]: ~300 nM
Molecule: Ac-AMVSEFLKQAWFIENEEQEYVQTVK [ANXA1-derived peptide Ac2-26 (unlabelled)]

IC50 [16]: ~300 nM
IC50 [17]: ~20000 nM
Molecule: Ac-AMVSEFLKQAW [ANXA1-derived peptide Ac2-12]

IC50 ([2]; read-out: apparent IC50, competition for specific [^125I-Tyr]Ac2-26 binding, human PMNs in suspension): ~1000 nM
competition for specific [^125I-Tyr]Ac2-26 binding, adherent PMNs (in words) [3]: retained their ability to compete
B3: SAA: a proteolytic product of the acute phase response (protein, UniProt P0DJI8 19-122, looked up)
Serum amyloid A-1 protein: RSFFSFLGEAFDGARDMWRAYSDMREANYIGSDKYFHARGNYDAAKRGPGGAWAAEVITDARENIQRFFGHGAEDSLADQAANEWGRSGKDPNHFRPAGLPEKY
competition for specific [^3H]LXA4 binding (in words) [18]: competes for specific [^3H]LXA4 binding
activation of HEK293 cells expressing ALXR/FPRL1 [19]: activates HEK293 cells expressing ALXR/FPRL1
inhibition of human PMN oxidative burst [20]: inhibits human PMN oxidative burst

Kd [17]: ~900 nM
Molecule: Ac-AMVSEFLKQAWFIENEEQEY(125I)VQTVK [[125I-Tyr]Ac2-26 peptide (radio-iodinated ANXA1-derived peptide Ac2-26)]
